Measured values published in patent US9415023B2, “Compositions comprising terpene compounds for treating negative sensory phenomena” (NeuroQuest Inc., priority 2008, dated 2016).
Entries after “also recorded” stand apart in the source; their conditions may differ.

Assays:
[1] = Subject-reported relief of numbness and pain after topical application (case studies); type: in vivo, human
Experimental: (§1) A natural blend of geranium oil and other essential oils (Table 1) was also tested in a panel of human neuropathic pain sufferers, some of whom experienced negative sensory phenomena. […] The geranium oil blend or geraniol was topically applied in therapeutically effective amounts to areas of the human body affected with symptoms of negative sensory symptoms. Dosage amount depended on the size of the patient's affected areas. […] Once administered, a typical positive response was reported typically within minutes.

[2] = Nylon filament test of sensation after topical application (case studies); type: in vivo, human
Experimental: as §1
7, 2008 and complained of numbness on the soles of their feet. Their sensation was tested with a nylon filament and the patient could not feel the filament on the ball of either foot. Geraniol was applied to the ball of one foot. After approximately 5 minutes the feet were retested with the nylon filament. The foot that had not been treated still could not detect the touch of the filament.
They could not feel a nylon filament used to test sensation on the bottom of either foot. They had geraniol applied to the left foot and the sensation was retested after 5 minutes. […] The patient was given geraniol to use on the left foot every other day.

cortical neuron = assay: Perforated patch clamp electrophysiology of mouse brain slices; type: cell-based; settings: for membrane current (current-voltage relation): geraniol vs. control
Experimental: Studies were conducted on mouse hippocampal brain slice preparations. In terms of the slice preparations, […] coronal brain slices were prepared from animals housed in a 12 hour light (ZT 0-12):12 hour dark (ZT 12-24) environment. Animals were anesthetized with isoflurane, decapitated, the brain rapidly removed and placed in ice cold, oxygenated (95% 02:5% C02), bicarbonate-buffered artificial cerebral spinal fluid (ACSF). A 1 cm^2 block of brain tissue containing the hippocampi was glued to a cutting surface and coronal slices were prepared using a Leica VT1000S microtome (Leica Microsystems). All slices were left to equilibrate for approximately one hour prior to the transfer to a recording chamber. Once transferred to the chamber, slices were continuously superfused with oxygenated ACSF at a rate of 3 ml/min @30° C. and recordings are generally made for the next 6-12 hours. Patch microelectrodes (5-8 MΩ) made from borosilicate glass (Garner Glass Co.) and filled with K^+ based internal patch solution composed of: (in mM) 120 K-acetate, 40 HEPES, 10 EGTA, 6 MgCl2, nystatin (450 μg/ml) or gramicidin B (5 μg/ml) and pluronic acid F127.
The perforated patch recording technique and will be used (Korn & Horn, 1989) and viable Hippocampal neurons were visually targeted using Infrared Differential Interference Contrast (IR-DIC) microscopy using a Leica DM LFSA scope. […] Recordings were made from 3 different patch rigs equipped with either […] patch clamp amplifiers interfaced via a Digidata 1322A to a PC computer or on, in terms of the studies performed on dissociated DRG neurons, a Zeiss Axoscop 200 inverted microscope equipped with an Axopatch 200B/Digidata 1322A using Pclamp 9.0 and Axoscope 9 software.
Test compounds were bath-applied by superfusion to examine for changes in excitability and/or attenuation of ion channels and the effects of compounds on evoked synaptic responses. Stimulating electrodes (concentric or bipolar) were placed within the slices and in accordance with the well known fiber tract pathways of passage for the DH and the hippocampus.

SMILES: CC(C)=CCC/C(C)=C/CO [geraniol, 2,6-Octadien-1-ol, 3,7-dimethyl-, (2E)-]
- numbness / negative sensory phenomena, subject-reported [1]: improvements seen in subjectively reported symptoms
- feeling in treated foot vs untreated foot ([2]; topical every other day, over 2 week period): continued to have more feeling than the right foot
- sensation tested with nylon filament on treated foot ([2]; topical, retested after approximately 5 minutes, untreated foot as comparison): improvements in sensory functioning; also recorded: able to feel the nylon filament; also recorded: could detect feeling with a nylon filament
- action potentials during current-voltage steps (cortical neuron; 10 mV steps (250 ms) from -110 to -20 mV, in presence of compound): inhibition of action potentials
- membrane current (current-voltage relation) (cortical neuron; 10 mV steps (250 ms) from -110 to -20 mV): reduction in the membrane current amplitude; also recorded: reduction of membrane currents
- membrane current (current-voltage relation) (cortical neuron; 10 mV steps (250 ms) from -110 to -20 mV, listed as Geraniol): reduction of membrane currents
- action potential following depolarizing current pulse (cortical neuron; depolarizing current pulse of 0.4 nA): inhibition of action potential
- net current reduction (current differential between control and tested compound) (cortical neuron; most negative voltage step (-110 mV), FIG. 3, ranking among samples): greatest inhibition
